Here are results for one substance from US20190209680A1, “TREATMENT OF ACUTE LIVER FAILURE” (The University of Birmingham, priority 2016, published 2019).

The test relates to carbon tetrachloride induced liver injury in CLEC1b fl/fl PF4cre mice. The test is described as follows: Carbon tetrachloride injection in CLEC1b fl/fl PF4cre (KO) mice pre-treated with Etanercept. The test is classed as in vivo, mouse. The note with it: for Number of neutrophils per gram of liver tissue: 48 hours after carbon tetrachloride injection. As for the experimental part:
Kupffer cells isolated from WT mouse livers were plated in a tissue culture well, treated with lipopolysaccharide (LPS) and incubated with either platelets from CLEC2 deficient animals or WT platelets. (A) Production of TNF-alpha by Kupffer cells was measured in response to LPS plus either CLEC-2 deficient (KO) platelets or WT platelets (n=4 per group). (B) Isolated Kupffer cells (F480^+, shown in green), were incubated with either CLEC2 deficient or WT platelets (CD41^+, shown in purple). DAPI (blue) was used as a nuclear stain. Representative images (63× magnification) are shown. (C) Serum was isolated from WT and CLEC1b fl/fl PF4cre (KO) mice at 24 hours after carbon tetrachloride injection and serum TNF-alpha levels measured by ELISA. Levels are shown as picograms/ml (n=6/group) (*P<0.05, **P<0.01, ***P<0.001), (D) CLEC1b fl/fl PF4cre mice were pre-treated with an anti-TNF-alpha monoclonal antibody (Etanercept) before carbon tetrachloride injection (KO+AB). WT and CLEC1b fl/fl PF4cre mice not pre-treated before carbon tetrachloride injection were used as controls (WT and KO, accordingly). Mice were sacrificed 48 hours after the carbon tetrachloride injection. […]
Mouse livers were harvested after the animal was euthanized under deep sedation after cardiac puncture. […] The resulting immune cells were then purified using an Optiprep gradient (Sigma) and analysed by flow cytometry. […] Absolute cell counts were determined with AccuCheck Counting Beads (Invitrogen), and the number of cells was normalised to the total liver weight. Data were analysed using a CyAn ADP flow cytometer (Beckman Coulter) or a BD LSRII using Summit version 4.3 or FlowJo version 10.0.7 software where appropriate.
Serum was isolated from whole blood and levels of liver-specific enzymes AST and ALT were measured on a clinical autoanalyser, according to standard protocols in the Biochemistry Department at the Birmingham Women's Hospital, Birmingham, UK. […]

In the case of Etanercept, the “Number of neutrophils per gram of liver tissue” value was “substantially reduced” (compared to CLEC1b fl/fl PF4cre mice not pre-treated with antibody (FIG. 3D)) and “comparable to WT control” (pre-treated KO mice relative to WT control (FIG. 3D)). Further, the “Serum ALT levels” value (48 hours post carbon tetrachloride, compared to CLEC-2 deficient mice not given antibody (FIG. 3E)) is recorded as “considerably higher”.
